Source: ChEMBL document CHEMBL1201862, “PubChem BioAssay data set” (2004)
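Briefly, cells in 96-well plates were exposed to five compound concentrations for 48 h, and endpoints were estimated by linear interpolation. Abbreviation: GI50, concentration required for 50% inhibition of growth.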 Activity calls are given as the source filed them. No stated cut-off is given here; in the data, active = GI50 up to about 1.1 µM and inactive = higher.

What was measured:
Experiment in all cases: NCI-60 cell line screen, 48 h
EKVX = test system: EKVX
HCT-116 = test system: HCT-116
HT-29 = test system: HT-29
MDA-MB-231 = test system: MDA-MB-231
MDA-MB-435 = test system: MDA-MB-435
MOLT-4 = test system: MOLT-4
NCI-H23 = test system: NCI-H23
OVCAR-8 = test system: OVCAR-8
PC-3 = test system: PC-3
RPMI-8226 = test system: RPMI-8226
SF-295 = test system: SF-295
SK-MEL-28 = test system: SK-MEL-28
SK-MEL-2 = test system: SK-MEL-2
SK-MEL-5 = test system: SK-MEL-5
SNB-19 = test system: SNB-19
SW-620 = test system: SW-620
T47D = test system: T47D
U-251 = test system: U-251
UACC-257 = test system: UACC-257
DLD-1 = test system: DLD-1

Measured: GI50

Cc1ccc2c(c1)nc(N)n[n+]2[O-]
inactive: EKVX > 100 µM | HCT-116 > 100 µM | HT-29 > 100 µM | MDA-MB-231 > 100 µM | MDA-MB-435 > 100 µM | MOLT-4 > 100 µM | NCI-H23 > 100 µM | OVCAR-8 > 100 µM | PC-3 > 100 µM | RPMI-8226 > 100 µM | SF-295 > 100 µM | SK-MEL-28 > 100 µM | SK-MEL-2 > 100 µM | SK-MEL-5 > 100 µM | SNB-19 > 100 µM | SW-620 > 100 µM | T47D > 100 µM | U-251 > 100 µM | UACC-257 > 100 µM

OCCCCn1cc(Cn2ncc3c(SCc4ccccc4)ncnc32)nn1
inactive: EKVX 30.6 µM | HCT-116 33.6 µM | HT-29 40.5 µM | MDA-MB-231 75.7 µM | MDA-MB-435 19.9 µM | MOLT-4 21.3 µM | NCI-H23 54.2 µM | OVCAR-8 58.3 µM | PC-3 61.2 µM | RPMI-8226 40.9 µM | SF-295 28.7 µM | SK-MEL-28 51.2 µM | SK-MEL-2 76.7 µM | SK-MEL-5 21.7 µM | SNB-19 65.5 µM | SW-620 26.7 µM | T47D 32.2 µM | U-251 39.2 µM | UACC-257 49.4 µM

COC(O)C(=O)c1c2c(cc3c1CCC3)CCC2 (configuration not stated)
inactive: EKVX > 100 µM | HCT-116 > 100 µM | HT-29 > 100 µM | MDA-MB-231 > 100 µM | MDA-MB-435 > 100 µM | MOLT-4 > 100 µM | NCI-H23 > 100 µM | OVCAR-8 > 100 µM | PC-3 > 100 µM | RPMI-8226 55.1 µM | SF-295 > 100 µM | SK-MEL-28 > 100 µM | SK-MEL-2 > 100 µM | SK-MEL-5 > 100 µM | SNB-19 > 100 µM | SW-620 > 100 µM | T47D > 100 µM | U-251 > 100 µM | UACC-257 > 100 µM

N#C/N=C(/NCCc1c[nH]c2ccccc12)Oc1ccccc1
inactive: DLD-1 > 100 µM | EKVX 26.7 µM | HCT-116 52.5 µM | HT-29 34.8 µM | MOLT-4 37.1 µM | NCI-H23 > 100 µM | OVCAR-8 > 100 µM | RPMI-8226 37.7 µM | SF-295 45.8 µM | SK-MEL-28 > 100 µM | SK-MEL-5 35.6 µM | SNB-19 93.5 µM | SW-620 > 100 µM | U-251 > 100 µM | UACC-257 > 100 µM
